{"source": "the OPERA property sets (Mansouri et al. 2018)"}
{"smiles": "Clc1cc(Cl)c2oc3c(Cl)ccc(Cl)c3c2c1Cl", "logP": 6.59}
{"smiles": "Clc1cc2c(oc3c(Cl)c(Cl)c(Cl)c(Cl)c32)c(Cl)c1Cl", "logP": 7.92}
{"smiles": "Clc1cc(Cl)c2oc3c(Cl)c(Cl)ccc3c2c1", "logP": 6.25}
{"smiles": "Clc1cc(Cl)c2c(c1)oc1cc(Cl)cc(Cl)c12", "logP": 6.34}
{"smiles": "Clc1cc2oc3c(Cl)c(Cl)c(Cl)cc3c2cc1Cl", "logP": 6.92}
{"smiles": "Clc1cc2oc3cc(Cl)c(Cl)cc3c2cc1Cl", "logP": 6.53}
{"smiles": "Clc1ccc2c(c1)oc1c(Cl)c(Cl)cc(Cl)c12", "logP": 6.23}
{"smiles": "Clc1cc(Cl)c2oc3c(Cl)c(Cl)cc(Cl)c3c2c1", "logP": 6.24}
{"smiles": "Clc1cc2oc3cc(Cl)c(Cl)c(Cl)c3c2cc1Cl", "logP": 6.79}
{"smiles": "Clc1cc(Cl)c2oc3cc(Cl)c(Cl)cc3c2c1", "logP": 6.73}
{"smiles": "Clc1ccc2oc3c(Cl)c(Cl)c(Cl)c(Cl)c3c2c1", "logP": 6.79}
{"smiles": "Clc1cc2oc3ccc(Cl)c(Cl)c3c2cc1Cl", "logP": 6.23}
{"smiles": "Clc1cc(Cl)c2c(c1)oc1c(Cl)cc(Cl)cc12", "logP": 6.37}
{"smiles": "Clc1cc(Cl)c2c(oc3ccc(Cl)c(Cl)c32)c1Cl", "logP": 6.51}
{"smiles": "Clc1cc2oc3c(Cl)c(Cl)ccc3c2cc1Cl", "logP": 6.31}
{"smiles": "Clc1c(Cl)c(Cl)c2c(oc3ccccc32)c1Cl", "logP": 6.17}
{"smiles": "Clc1cc(Cl)c2c(oc3c(Cl)cccc32)c1Cl", "logP": 6.31}
{"smiles": "Clc1cc2c(oc3c(Cl)cccc32)c(Cl)c1Cl", "logP": 6.11}
{"smiles": "Clc1cc(Cl)c2oc3c(Cl)c(Cl)c(Cl)cc3c2c1", "logP": 6.59}
